Laboratory results reported in ChEMBL document CHEMBL3745645, “Synthesis, in vitro antitumor activity, dihydrofolate reductase inhibition, DNA intercalation and structure-activity relationship studies of 1,3,5-triazine analogues” (Bioorg Med Chem Lett, 2016).
Calls of active or inactive are those of the source. The calls are words filed in the database; no cut-off is given here.

Experiments:
Format in all cases: functional
[1] = tested on: MDA-MB-435; assay: Cytotoxicity against human MDA-MB-435 cells at 10 uM after 48 hrs by SRB assay; conditions: MDA-MB-435, 48 h, read-out: GI
[2] = Cytotoxicity against human HCT15 cells at 10 uM after 48 hrs by SRB assay; conditions: HCT-15, 48 h, read-out: GI
[3] = Cytotoxicity against human RPMI8226 cells at 10 uM after 48 hrs by SRB assay; conditions: RPMI-8226, 48 h, read-out: GI
[4] = tested on: A498; assay: Cytotoxicity against human A498 cells at 10 uM after 48 hrs by SRB assay; conditions: A498, 48 h, read-out: GI
[5] = Cytotoxicity against human SNB75 cells at 10 uM after 48 hrs by SRB assay; conditions: SNB-75, 48 h, read-out: GI
[6] = tested on: SN12C; assay: Cytotoxicity against human SN12C cells at 10 uM after 48 hrs by SRB assay; conditions: read-out: GI
[7] = tested on: OVCAR-4; assay: Cytotoxicity against human OVCAR4 cells at 10 uM after 48 hrs by SRB assay
[8] = tested on: HCC 2998; assay: Cytotoxicity against human HCC2998 cells at 10 uM after 48 hrs by SRB assay
[9] = Cytotoxicity against human UO31 cells at 10 uM after 48 hrs by SRB assay; conditions: UO-31, 48 h, read-out: GI
[10] = Cytotoxicity against human HOP92 cells at 10 uM after 48 hrs by SRB assay; conditions: HOP-92, 48 h, read-out: GI
[11] = tested on: SK-MEL-5; assay: Cytotoxicity against human SK-MEL-5 cells at 10 uM after 48 hrs by SRB assay; conditions: SK-MEL-5, 48 h, read-out: GI
[12] = tested on: K562; assay: Cytotoxicity against human K562 cells at 10 uM after 48 hrs by SRB assay; conditions: K562, 48 h, read-out: GI
[13] = tested on: NCI-H522; assay: Cytotoxicity against human NCI-H522 cells at 10 uM after 48 hrs by SRB assay; conditions: NCI-H522, 48 h, read-out: GI
[14] = tested on: SR; assay: Cytotoxicity against human SR cells at 10 uM after 48 hrs by SRB assay; conditions: read-out: GI
[15] = Cytotoxicity against human SF539 cells at 10 uM after 48 hrs by SRB assay; conditions: SF-539, 48 h, read-out: GI
[16] = tested on: ACHN; assay: Cytotoxicity against human ACHN cells at 10 uM after 48 hrs by SRB assay; conditions: read-out: GI
[17] = Cytotoxicity against human UACC62 cells at 10 uM after 48 hrs by SRB assay; conditions: UACC-62, 48 h, read-out: GI
[18] = tested on: NCI-H226; assay: Cytotoxicity against human NCI-H226 cells at 10 uM after 48 hrs by SRB assay; conditions: NCI-H226, 48 h, read-out: GI
[19] = tested on: SF-268; assay: Cytotoxicity against human SF268 cells at 10 uM after 48 hrs by SRB assay
[20] = tested on: TK-10; assay: Cytotoxicity against human TK10 cells at 10 uM after 48 hrs by SRB assay
[21] = tested on: A549; assay: Cytotoxicity against human A549 cells at 10 uM after 48 hrs by SRB assay; conditions: A549, 48 h, read-out: GI
[22] = Cytotoxicity against human RXF393 cells at 10 uM after 48 hrs by SRB assay; conditions: RXF 393, 48 h, read-out: GI
[23] = tested on: IGROV-1; assay: Cytotoxicity against human IGROV1 cells at 10 uM after 48 hrs by SRB assay
[24] = tested on: NCI-H322M; assay: Cytotoxicity against human NCI-H322M cells at 10 uM after 48 hrs by SRB assay
[25] = tested on: NCI-H23; assay: Cytotoxicity against human NCI-H23 cells at 10 uM after 48 hrs by SRB assay; conditions: NCI-H23, 48 h, read-out: GI
[26] = tested on: SK-MEL-28; assay: Cytotoxicity against human SK-MEL-28 cells at 10 uM after 48 hrs by SRB assay
[27] = tested on: CCRF-CEM; assay: Cytotoxicity against human CCRF-CEM cells at 10 uM after 48 hrs by SRB assay; conditions: read-out: GI
[28] = tested on: CAKI-1; assay: Cytotoxicity against human Caki1 cells at 10 uM after 48 hrs by SRB assay
[29] = tested on: MDA-MB-468; assay: Cytotoxicity against human MDA-MB-468 cells at 10 uM after 48 hrs by SRB assay; conditions: MDA-MB-468, 48 h, read-out: GI
[30] = Cytotoxicity against human NCI-ADR-RES cells at 10 uM after 48 hrs by SRB assay; conditions: read-out: GI
[31] = tested on: NCI-H460; assay: Cytotoxicity against human NCI-H460 cells at 10 uM after 48 hrs by SRB assay; conditions: NCI-H460, 48 h, read-out: GI
[32] = tested on: M14; assay: Cytotoxicity against human M14 cells at 10 uM after 48 hrs by SRB assay; conditions: M14, 48 h, read-out: GI
[33] = Cytotoxicity against human HOP62 cells at 10 uM after 48 hrs by SRB assay; conditions: HOP-62, 48 h, read-out: GI
[34] = Cytotoxicity against human SNB19 cells at 10 uM after 48 hrs by SRB assay; conditions: SNB-19, 48 h, read-out: GI
[35] = tested on: DU-145; assay: Cytotoxicity against human DU145 cells at 10 uM after 48 hrs by SRB assay
[36] = tested on: UACC-257; assay: Cytotoxicity against human UACC257 cells at 10 uM after 48 hrs by SRB assay
[37] = tested on: SK-OV-3; assay: Cytotoxicity against human SKOV3 cells at 10 uM after 48 hrs by SRB assay
[38] = Cytotoxicity against human PC3 cells at 10 uM after 48 hrs by SRB assay; conditions: PC-3, 48 h, read-out: GI
[39] = Cytotoxicity against human SF295 cells at 10 uM after 48 hrs by SRB assay; conditions: SF-295, 48 h, read-out: GI
[40] = tested on: LOX IMVI; assay: Cytotoxicity against human LOXIMVI cells at 10 uM after 48 hrs by SRB assay
[41] = Cytotoxicity against human COLO205 cells at 10 uM after 48 hrs by SRB assay; conditions: COLO 205, 48 h, read-out: GI
[42] = tested on: 786-0; assay: Cytotoxicity against human 786-0 cells at 10 uM after 48 hrs by SRB assay; conditions: 786-0, 48 h, read-out: GI
[43] = tested on: MCF7; assay: Cytotoxicity against human MCF7 cells at 10 uM after 48 hrs by SRB assay; conditions: MCF7, 48 h, read-out: GI
[44] = tested on: HT-29; assay: Cytotoxicity against human HT-29 cells at 10 uM after 48 hrs by SRB assay
[45] = Cytotoxicity against human OVCAR8 cells at 10 uM after 48 hrs by SRB assay; conditions: OVCAR-8, 48 h, read-out: GI
[46] = tested on: T47D; assay: Cytotoxicity against human T47D cells at 10 uM after 48 hrs by SRB assay; conditions: read-out: GI
[47] = tested on: KM12; assay: Cytotoxicity against human KM12 cells at 10 uM after 48 hrs by SRB assay; conditions: KM12, 48 h, read-out: GI
[48] = Cytotoxicity against human Hs 578T cells at 10 uM after 48 hrs by SRB assay; conditions: read-out: GI
[49] = Cytotoxicity against human SW620 cells at 10 uM after 48 hrs by SRB assay; conditions: SW-620, 48 h, read-out: GI
[50] = Cytotoxicity against human MOLT4 cells at 10 uM after 48 hrs by SRB assay; conditions: MOLT-4, 48 h, read-out: GI
[51] = Cytotoxicity against human OVCAR3 cells at 10 uM after 48 hrs by SRB assay; conditions: OVCAR-3, 48 h, read-out: GI
[52] = tested on: U-251; assay: Cytotoxicity against human U251 cells at 10 uM after 48 hrs by SRB assay; conditions: U-251, 48 h, read-out: GI
[53] = tested on: Malme-3M; assay: Cytotoxicity against human MALME-3M cells at 10 uM after 48 hrs by SRB assay; conditions: read-out: GI
[54] = tested on: MDA-MB-231; assay: Cytotoxicity against human MDA-MB-231 cells at 10 uM after 48 hrs by SRB assay; conditions: MDA-MB-231, 48 h, read-out: GI
[55] = Cytotoxicity against human HCT116 cells at 10 uM after 48 hrs by SRB assay; conditions: HCT-116, 48 h, read-out: GI
[56] = Cytotoxicity against human BT549 cells at 10 uM after 48 hrs by SRB assay; conditions: BT-549, 48 h, read-out: GI

Compound: Cc1nc2ccc(Nc3nc(NCCO)nc(Nc4ccc(F)cc4)n3)cc2n1Cc1ccccc1
- inhibition of growth at 10 µM [1]: 2.54%
- inhibition of growth at 10 µM [2]: 8.36%
- inhibition of growth at 10 µM [3]: 33.7%
- inhibition of growth at 10 µM [4]: 25.3%
- inhibition of growth at 10 µM [5]: 8.89%
- inhibition of growth at 10 µM [6]: 1.6%
- growth inhibition (GI) [7]: inactive
- growth inhibition (GI) [8]: inactive
- inhibition of growth at 10 µM [9]: 13.2%
- inhibition of growth at 10 µM [10]: 19.4%
- inhibition of growth at 10 µM [11]: 26%
- inhibition of growth at 10 µM [12]: 25.7%
- inhibition of growth at 10 µM [13]: 20.4%
- inhibition of growth at 10 µM [14]: 28.3%
- inhibition of growth at 10 µM [15]: 3.59%
- inhibition of growth at 10 µM [16]: 4.66%
- inhibition of growth at 10 µM [17]: 6.56%
- inhibition of growth at 10 µM [18]: 11.1%
- growth inhibition (GI) [19]: inactive
- growth inhibition (GI) [20]: inactive
- inhibition of growth at 10 µM [21]: 13.8%
- inhibition of growth at 10 µM [22]: 26.1%
- growth inhibition (GI) [23]: inactive
- growth inhibition (GI) [24]: inactive
- inhibition of growth at 10 µM [25]: 6.24%
- growth inhibition (GI) [26]: inactive
- inhibition of growth at 10 µM [27]: 25.3%
- growth inhibition (GI) [28]: inactive
- inhibition of growth at 10 µM [29]: 23%
- inhibition of growth at 10 µM [30]: 18.1%
- inhibition of growth at 10 µM [31]: 4.15%
- inhibition of growth at 10 µM [32]: 6.68%
- inhibition of growth at 10 µM [33]: 0.23%
- inhibition of growth at 10 µM [34]: 2.43%
- growth inhibition (GI) [35]: inactive
- growth inhibition (GI) [36]: inactive
- growth inhibition (GI) [37]: inactive
- inhibition of growth at 10 µM [38]: 0.89%
- inhibition of growth at 10 µM [39]: 11%
- growth inhibition (GI) [40]: inactive
- inhibition of growth at 10 µM [41]: 6.67%
- inhibition of growth at 10 µM [42]: 11.9%
- inhibition of growth at 10 µM [43]: 19.8%
- growth inhibition (GI) [44]: inactive
- inhibition of growth at 10 µM [45]: 4.04%
- inhibition of growth at 10 µM [46]: 39.3%
- inhibition of growth at 10 µM [47]: 7.5%
- inhibition of growth at 10 µM [48]: 8.56%
- inhibition of growth at 10 µM [49]: 0.58%
- inhibition of growth at 10 µM [50]: 27.5%
- inhibition of growth at 10 µM [51]: 3.09%
- inhibition of growth at 10 µM [52]: 6.96%
- inhibition of growth at 10 µM [53]: 6.95%
- inhibition of growth at 10 µM [54]: 7.95%
- inhibition of growth at 10 µM [55]: 13.3%
- inhibition of growth at 10 µM [56]: 20.6%
